Data as given in patent US8796317B2, “Use of 7-nitro-2,1,3-benzoxadiazole derivatives for anticancer therapy” (Universita Degli Studi di Roma “Tor Vergata”, priority 2003, dated 2014).
pIC50: −log10 of the molar value. Values joined by “and” are separate entries in the source; they are usually repeats but may differ in a detail not shown here. Equal values may be shown once.

Columns and labels:
GST P1-1 = target: T1, GST P1-1 (Homo sapiens, UniProt P09211); assay: Inhibition of GST activity (CDNB/GSH spectrophotometric assay); assay type: biochemical; conditions: for pIC50: 25° C., pH 6.5, 1 mM glutathione, 1 mM CDNB
T1 construct: made in house; host or cells: Escherichia coli
Method: (§1) GSTA1-1, M2-2 and P1-1, expressed in Escherichia coli, were purified by using a chromatographic passage on an affinity resin capable of selectively retaining the GST (J. Biol. Chem. 270, (1995), 1249-1253).
(§2) GST activity was tested at 25° C. with a 0.1 M potassium phosphate buffer, at pH 6.5, in the presence of the substrates, i.e. of the glutathione (Sigma-Aldrich, Fine Chemicals) in a concentration of 1 mM, and of 1-chloro-2,4-dinitrobenzene (CDNB) (Sigma-Aldrich, Fine Chemicals) 1 mM (Methods Enzymol. 77, 1981, 398-405).
(§3) Enzymatic activity was assessed spectrophotometrically at 340 nm, a wavelength at which it absorbs the reaction product S-(2,4-dinitrobenzene)glutathione (GS-DNB) (6=9.6 mM^−1 cm^−1).

GST M2-2 = target: T2, GST M2-2 (Homo sapiens, UniProt P28161); assay: as above; assay type: biochemical; conditions: 25° C., pH 6.5, 1 mM glutathione, 1 mM CDNB
T2 construct: made in house; host or cells: Escherichia coli
T2 sequence (P28161 1-218): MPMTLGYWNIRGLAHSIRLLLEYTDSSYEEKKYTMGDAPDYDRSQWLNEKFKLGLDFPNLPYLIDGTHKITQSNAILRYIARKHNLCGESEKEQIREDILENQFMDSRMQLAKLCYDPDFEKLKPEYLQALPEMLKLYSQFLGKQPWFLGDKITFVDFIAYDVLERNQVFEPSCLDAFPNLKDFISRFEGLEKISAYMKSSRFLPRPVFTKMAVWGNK
Method: (§4) These compounds were tested as inhibitors of the activity of the isoenzymes GSTP1-1, GSTA1-1 and GSTM2-2 belonging to the most representative GST classes: the Pi, Mu and Alpha classes.
as §1, §2, §3

GST A1-1 = target: T3, GST A1-1 (Homo sapiens, UniProt P08263); assay: as above; assay type: biochemical; conditions: 25° C., pH 6.5, 1 mM glutathione, 1 mM CDNB
T3 construct: made in house; host or cells: Escherichia coli
T3 sequence (P08263 1-222): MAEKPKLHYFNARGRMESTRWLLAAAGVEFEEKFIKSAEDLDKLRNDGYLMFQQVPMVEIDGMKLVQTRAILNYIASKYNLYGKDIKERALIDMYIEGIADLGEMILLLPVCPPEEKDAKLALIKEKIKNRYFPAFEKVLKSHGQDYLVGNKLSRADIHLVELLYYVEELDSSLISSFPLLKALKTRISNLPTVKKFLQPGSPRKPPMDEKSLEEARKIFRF
Method: as §4, §1, §2, §3

[1] = system: HepG2 (human hepatic carcinoma); assay: SRB cell growth test; assay type: cell-based; conditions: HepG2, read-out: Activity trials on cell lines - IC50 (50% inhibition of cell growth), HepG2, 48 hours
Method: (§5) Four cancer cell lines were used for testing the anticancer activity of the derivatives of 7-nitro-2,1,3-benzoxadiazole: K562 (human myeloid leukaemia), HepG2 (human hepatic carcinoma), CEM1.3 (human T-lymphoblastic leukaemia) and GLC-4 (human small cell lung carcinoma).
(§6) The human cancer cell lines were maintained in RPMI 1640 (containing L-glutamine 2 mM and 0.1 g/l of penicillin-G/streptomycin sulphate) enriched with 5% foetal bovine serum (FBS), at 37° C., 5% CO2 and 98% humidity.
(§7) The cells were placed in 96-well plates at a density of 15,000 cells per well, in a culture medium volume of 100 μl. After 24 hours, each of the 7-nitro-2,1,3-benzoxadiazole derivatives to be assayed, at the required concentration, was added to the culture medium. At the same time, some control trials were arranged by adding to the wells the solvent in which the compound was dissolved (% v/v of DMSO in PBS). All measurements were carried out in quadruplicate.
(§8) The cells were incubated for 48 hours at 37° C., at 5% CO2.
(§9) In order to obtain a dose-response profile for each derivative of 7-nitro-2,1,3-benzoxadiazole under study, an evaluation process based on the method described by Shekan et al (J. Natl. Cancer. Inst. 82, (1990), 1107-1112) was used.
(§10) After incubation, the percentage cell growth was evaluated by an insitu cell fixation procedure, followed by an SRB test using a colouring procedure with sulphorodamine B capable of specifically binding to proteins. The coloured product was then solubilised and quantified spectrophotometrically in order to determine the growth of the cells treated with the compound under study with respect to the ones treated with the solvent only.

[2] = system: GLC-4 (human small cell lung carcinoma); assay: SRB cell growth test; assay type: cell-based; conditions: GLC4, read-out: Activity trials on cell lines - IC50 (50% inhibition of cell growth), GLC-4, 48 hours
Method: as §5, §6, §7, §8, §9, §10

[3] = system: K562 (human myeloid leukaemia); assay: SRB cell growth test; assay type: cell-based; conditions: K562, read-out: Activity trials on cell lines - IC50 (50% inhibition of cell growth), K562, 48 hours
Method: as §5, §6, §7, §8, §9, §10

[4] = system: CEM1.3 (human T-lymphoblastic leukaemia); assay: SRB cell growth test; assay type: cell-based; conditions: CEM13, read-out: Activity trials on cell lines - IC50 (50% inhibition of cell growth), CEM1.3, 48 hours
Method: as §5, §6, §7, §8, §9, §10

caspase-3 in K562 cells = assay: Caspase-3 activation (Ac-DEVD-AFC) in cell lysates; assay type: cell-based, human; conditions: K562, 10 μM, after 24 h
Method: Pellets of cells at different times of incubation with 7-nitro-benzofurazan derivative No. 2 (10 μM and 2 μM with K562 and CEM1.3 respectively), were resuspended with lysis buffer (100 mM Hepes, pH 7.6, 0.1% Chaps, 1 mM EDTA, 1 mM Phenyl-methyl-sulphonyl-fluoride and 10 mM DTT) for 20 min on ice and cells were disrupted by 10-s sonication. Lysates, after centrifugation, were utilized to measure the caspase-3 activity. The substrate utilized was the model fluorescent peptide Ac-DEVD-AFC (Acetyl-Asp-GluVal-Asp-7-amino-4-trifluoromethyl coumarin) which was proteolyzed by caspase-3 resulting in a fluorescence emission at 505 nm (excitation at 400 nm). As control, lysates were incubated 30 min at 30° C. with the caspase inhibitor DEVD-CHO before evaluation of enzyme activity. Caspase activity was expressed as fluorescence change observed per minute per number of cells.

[5] = target: T4, GST-JNK complex in K562 cells (Homo sapiens, UniProt P09211); assay: Immunoprecipitation with anti-JNK antibody and Western blot; assay type: cell-based; conditions: K562 lysates, 10 μM; slightly increases only after 3 h
T4 construct: K562 cell lysates were immunoprecipitated with an anti-JNK antybody and used for Western blot analysis; endogenous in cells; host or cells: K562
Method: For the immunoprecipitation analysis, cell pellets were resuspended in lysis buffer, and cells were disrupted by 10-s sonication. Lysates were then centrifuged at 14,000 g for 15 min at 4° C. Proteins were incubated in lysis buffer with anti-JNK antibody for 2 h at 4° C. Immunocomplexes were absorbed with protein A-Sepharose for 30 min at 4° C. After three washes with lysis buffer, immune pellets were boiled in SDS sample buffer. Proteins were loaded on 15% SDS-polyacrylamide gel and transferred to nitrocellulose. GST, JNK and phospho-JNK were detected by specific antibody.
To assess if cell treatment with derivative No. 2 affects the amount of GST-JNK complex, K562 cell lysates were immunoprecipitated with an anti-JNK antybody and used for Western blot analysis.

CEM1.3 cells = assay: Flow cytometric analysis of apoptosis (Annexin V-FITC / PI); assay type: cell-based, human; conditions: CEM1.3, 2 μM
Method: (§11) Cells were washed in PBS, and stained with propidium iodide and with the impermeant dye Annexin V-FITC (Bender MedSystems, Vienna, Austria). The stained cells were analysed using a FACScan Flow Cytometer (Becton-Dickinson, CA). Data were recorded and statistically analysed by WinMDI version 2.8 software. Simultaneous staining of cells with Annexin V-FITC and PI allows the discrimination of intact cells, early apoptotic and late apoptotic or necrotic cells.

K562 cells = assay: as above; assay type: cell-based, human; conditions: K562, 10 μM
Method: as §11

[6] = system: K562, HepG2, CEM1.3 and GLC-4 cancer cell lines; assay: Cytotoxicity, viability and cell penetration on all the tested cancer cell lines; assay type: cell-based, human
Method: as §5, §6
as §7, with “quadruplicate. […]” for “quadruplicate.”
as §10

[7] = system: CEMVBL100, leukaemia line resistant to vinblastine (hyperexpressing P-glycoprotein); assay: Cytotoxicity of vinblastine on resistant cells with and without the derivative (SRB test); assay type: cell-based; conditions: CEM/VBL100, 48 h
Method: In cancer cells the resistance to many anticancer drugs is often associated with a high expression of P-glycoprotein, a membrane protein belonging to the overall family of ABC transporters (ATP-binding cassette).
The cells were placed in 96-well strips at a density of 15,000 cells per well, in a volume of culture medium of 100 μl. After 24 hours, a suitable concentration of between 25 nM and 1000 nM of vinblastine was added to the culture medium. […] At the same time, some control trials were arranged by adding to the wells the solvent in which the compound was dissolved (% v/v of DMSO in PBS). All measurements were carried out in quadruplicate. After 48 hours of incubation, a dosage-response profile was obtained by using the SRB test (J. Natl. Cancer. Inst. 82, (1990), 1107-1112, loc. cit.).

T1 sequence (P09211 2-210 limits assumed): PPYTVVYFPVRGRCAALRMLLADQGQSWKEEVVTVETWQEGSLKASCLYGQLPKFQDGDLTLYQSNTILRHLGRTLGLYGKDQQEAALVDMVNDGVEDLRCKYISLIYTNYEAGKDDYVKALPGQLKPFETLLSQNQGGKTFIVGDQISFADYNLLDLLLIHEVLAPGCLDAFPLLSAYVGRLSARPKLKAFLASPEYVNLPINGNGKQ
T4 sequence (P09211 2-210 limits assumed, one chain of several): as the sequence (P09211 2-210 limits assumed) above

pIC50 (GST P1-1) | pIC50 (GST M2-2) | pIC50 (GST A1-1) | pIC50 [1] | pIC50 [2] | pIC50 [3] | pIC50 [4] | Structure (SMILES) | caspase-3 activity (caspase-3 in K562 cells) | amount of GSTP1-1 that co-precipitates with JNK [5] | apoptosis (CEM1.3 cells; 12 h treatment) | apoptosis (CEM1.3 cells; after 24 h) | apoptosis (K562 cells; 12 h treatment) | apoptosis (K562 cells; after 24 h) | inhibition activity with regard to the enzymatic isoform GSTP1-1 (in words) (GST P1-1) | viability of all the tested cancer cell lines ([6]; 48 hours of incubation with 50 μM) | penetration into the cells (intracellular fluorescence) ([6]; after 6 hours of incubation, various concentrations) | pIC50 ([7]; CEM VBL100, 7-nitro-2,1,3-benzoxadiazole derivative absent) | pIC50 ([7]; CEM VBL100, with 0.5 μM 6-(7-nitro-2,1,3-benzoxadiazol-4-ylthio)hexanol)
5.70 | 7.52 | 4.25 | 5.49 | 5.49 | 5.66 | 6.70 | O=[N+]([O-])c1ccc(SCCCCO)c2nonc12 [(1), 4-(7-nitro-2,1,3-benzoxadiazol-4-ylthio)butanol] |  |  |  |  |  |  |  |  |  |  | 
5.20 | 8.00 | 4.96 | 4.80 | 5.00 | 5.06 | 5.41 | O=[N+]([O-])c1ccc(Sc2ncc[nH]2)c2nonc12 [(3), 2-(7-nitro-2,1,3-benzoxadiazol-4-ylthio)imidazole] |  |  |  |  |  |  |  |  |  |  | 
6.15 | 7.52 | 5.19 | 4.79 | 5.12 | 5.19 | 5.62 | O=[N+]([O-])c1ccc(Sc2ccc(O)cc2)c2nonc12 [(4), 4-(7-nitro-2,1,3-benzoxadiazol-4-ylthio)phenol] |  |  |  |  |  |  |  |  |  |  | 
5.24 | 6.51 | 4.18 | 4.60 | 4.78 | 4.42 | 5.19 | O=C(O)CCSc1ccc([N+](=O)[O-])c2nonc12 [(5), 3-(7-nitro-2,1,3-benzoxadiazol-4-ylthio)propionic acid] |  |  |  |  |  |  |  |  |  |  | 
 |  |  |  |  |  |  | CC[C@]1(O)C[C@@H]2CN(CCc3c([nH]c4ccccc34)[C@@](C(=O)OC)(c3cc4c(cc3OC)N(C)[C@H]3[C@@](O)(C(=O)OC)[C@H](OC(C)=O)[C@]5(CC)C=CCN6CC[C@]43[C@@H]65)C2)C1 [vinblastine] |  |  |  |  |  |  |  |  |  | 6.47 | 7.30

Structure (SMILES) | pIC50 (GST P1-1) | pIC50 (GST M2-2) | pIC50 (GST A1-1) | pIC50 [1] | pIC50 [2] | pIC50 [3] | pIC50 [4] | caspase-3 activity (caspase-3 in K562 cells) | amount of GSTP1-1 that co-precipitates with JNK [5] | apoptosis (CEM1.3 cells; 12 h treatment) | apoptosis (CEM1.3 cells; after 24 h) | apoptosis (K562 cells; 12 h treatment) | apoptosis (K562 cells; after 24 h) | inhibition activity with regard to the enzymatic isoform GSTP1-1 (in words) (GST P1-1) | viability of all the tested cancer cell lines ([6]; 48 hours of incubation with 50 μM) | penetration into the cells (intracellular fluorescence) ([6]; after 6 hours of incubation, various concentrations) | pIC50 ([7]; CEM VBL100, 7-nitro-2,1,3-benzoxadiazole derivative absent) | pIC50 ([7]; CEM VBL100, with 0.5 μM 6-(7-nitro-2,1,3-benzoxadiazol-4-ylthio)hexanol)
O=[N+]([O-])c1ccc(SCCCCCCO)c2nonc12 [(2), 6-(7-nitro-2,1,3-benzoxadiazol-4-ylthio)hexanol] |  | 8.00 | 4.60 | 5.54 | 5.85 | 6.10 | 7.00 | strong increase of caspase-3 | rapidly decreased | 34% | 47% | 30% | 41% |  |  |  |  | 
O=[N+]([O-])c1ccc(NCCCCCCO)c2nonc12 [(6), 6-(7-nitro-2,1,3-benzoxadiazol-4-ylamino)hexanol] |  | ~5.70 and 5.74 | < 4.00 | < 4.30 | < 4.30 | < 4.30 | < 4.30 |  |  |  |  |  |  | no inhibition activity | still viable | easily penetrate the cells |  | 
